Reference: ChEMBL document CHEMBL3774308, “KATching-Up on Small Molecule Modulators of Lysine Acetyltransferases” (J Med Chem, 2016)
Each block holds one compound with its values, some of them ahead of it.

How the values were obtained:
[1] = biological target: T1, Histone acetyltransferase p300 (Homo sapiens, UniProt Q09472); assay: Inhibition of human recombinant p300 catalytic domain (1284 to 1673 residues) expressed in Escherichia coli using H4-8 peptide substrate by radiometric assay in presence of [3H]acetyl-CoA
T1 sequence (Q09472 whole entry, the tested form may be a part): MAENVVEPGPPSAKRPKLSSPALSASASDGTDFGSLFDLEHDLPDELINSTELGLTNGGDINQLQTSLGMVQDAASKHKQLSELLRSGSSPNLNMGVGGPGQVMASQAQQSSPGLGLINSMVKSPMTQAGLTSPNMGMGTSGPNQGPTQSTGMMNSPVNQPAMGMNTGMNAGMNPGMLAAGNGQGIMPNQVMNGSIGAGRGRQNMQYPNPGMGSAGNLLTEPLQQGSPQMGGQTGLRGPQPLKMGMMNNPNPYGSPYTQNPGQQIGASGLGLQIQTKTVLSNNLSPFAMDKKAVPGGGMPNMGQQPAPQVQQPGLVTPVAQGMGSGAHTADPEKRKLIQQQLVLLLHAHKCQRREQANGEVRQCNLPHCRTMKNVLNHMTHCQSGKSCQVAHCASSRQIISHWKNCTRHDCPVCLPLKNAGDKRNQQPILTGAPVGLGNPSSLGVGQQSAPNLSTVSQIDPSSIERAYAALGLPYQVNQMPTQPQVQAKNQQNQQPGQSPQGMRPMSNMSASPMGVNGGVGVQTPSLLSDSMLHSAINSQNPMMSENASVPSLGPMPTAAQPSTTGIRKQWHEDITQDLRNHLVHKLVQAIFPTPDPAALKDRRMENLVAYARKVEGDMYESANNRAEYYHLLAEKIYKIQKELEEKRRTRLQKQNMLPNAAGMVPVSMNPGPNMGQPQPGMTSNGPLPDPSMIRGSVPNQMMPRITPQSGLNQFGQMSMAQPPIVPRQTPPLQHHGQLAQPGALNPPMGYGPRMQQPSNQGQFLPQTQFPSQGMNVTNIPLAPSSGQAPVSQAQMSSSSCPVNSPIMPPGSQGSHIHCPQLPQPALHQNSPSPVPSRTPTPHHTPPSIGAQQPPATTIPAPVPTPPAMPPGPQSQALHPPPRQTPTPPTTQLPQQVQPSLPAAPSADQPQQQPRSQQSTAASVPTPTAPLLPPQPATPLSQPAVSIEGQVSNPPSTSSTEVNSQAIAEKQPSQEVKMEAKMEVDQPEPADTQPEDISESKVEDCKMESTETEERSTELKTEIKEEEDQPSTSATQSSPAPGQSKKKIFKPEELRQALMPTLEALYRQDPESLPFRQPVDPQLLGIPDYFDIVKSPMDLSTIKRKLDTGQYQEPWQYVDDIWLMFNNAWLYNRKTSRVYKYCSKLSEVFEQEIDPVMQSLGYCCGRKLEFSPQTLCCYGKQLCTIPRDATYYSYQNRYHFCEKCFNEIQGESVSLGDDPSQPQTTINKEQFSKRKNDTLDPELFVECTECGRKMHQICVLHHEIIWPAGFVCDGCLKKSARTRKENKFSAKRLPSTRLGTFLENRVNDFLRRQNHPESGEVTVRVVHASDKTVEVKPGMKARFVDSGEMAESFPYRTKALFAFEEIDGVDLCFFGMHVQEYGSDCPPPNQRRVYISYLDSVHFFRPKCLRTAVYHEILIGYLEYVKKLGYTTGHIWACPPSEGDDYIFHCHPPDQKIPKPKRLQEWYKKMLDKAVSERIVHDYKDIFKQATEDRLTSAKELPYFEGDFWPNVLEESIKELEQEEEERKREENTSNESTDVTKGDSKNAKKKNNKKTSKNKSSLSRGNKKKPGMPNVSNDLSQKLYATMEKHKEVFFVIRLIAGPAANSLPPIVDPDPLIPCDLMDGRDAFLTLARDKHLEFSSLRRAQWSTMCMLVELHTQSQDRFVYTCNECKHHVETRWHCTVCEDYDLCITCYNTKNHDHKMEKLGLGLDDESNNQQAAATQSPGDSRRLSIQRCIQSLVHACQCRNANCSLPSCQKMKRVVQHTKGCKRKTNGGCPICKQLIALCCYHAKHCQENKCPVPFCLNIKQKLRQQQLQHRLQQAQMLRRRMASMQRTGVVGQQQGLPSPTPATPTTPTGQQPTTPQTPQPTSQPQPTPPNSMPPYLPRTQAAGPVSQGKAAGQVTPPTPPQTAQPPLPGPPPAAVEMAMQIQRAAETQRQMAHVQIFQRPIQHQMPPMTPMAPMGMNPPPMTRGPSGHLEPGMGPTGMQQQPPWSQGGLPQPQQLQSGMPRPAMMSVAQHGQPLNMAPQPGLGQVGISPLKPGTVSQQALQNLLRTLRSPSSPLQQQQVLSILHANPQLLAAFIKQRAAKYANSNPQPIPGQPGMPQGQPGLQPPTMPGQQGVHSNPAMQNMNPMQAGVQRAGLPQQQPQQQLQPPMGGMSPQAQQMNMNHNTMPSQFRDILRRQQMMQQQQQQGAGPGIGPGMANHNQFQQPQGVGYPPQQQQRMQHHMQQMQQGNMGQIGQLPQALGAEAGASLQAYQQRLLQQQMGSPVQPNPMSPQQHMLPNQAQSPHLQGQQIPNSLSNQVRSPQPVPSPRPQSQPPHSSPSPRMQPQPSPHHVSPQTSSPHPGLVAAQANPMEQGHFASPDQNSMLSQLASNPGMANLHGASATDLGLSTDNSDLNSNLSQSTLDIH

[2] = biological target: T1, Histone acetyltransferase p300; assay: Inhibition of recombinant p300 (unknown origin) expressed in baculovirus expression system using histone substrate at 50 uM after 10 mins by liquid scintillation counting method in presence of [3H]acetyl-CoA relative to control
[3] = biological target: T2, Histone acetyltransferase KAT2B (Homo sapiens, UniProt Q92831); assay: Inhibition of recombinant PCAF (unknown origin) expressed in baculovirus expression system using histone substrate at 50 uM after 10 mins by liquid scintillation counting method in presence of [3H]acetyl-CoA relative to control
Target sequence in this assay (Q92831 whole entry, looked up): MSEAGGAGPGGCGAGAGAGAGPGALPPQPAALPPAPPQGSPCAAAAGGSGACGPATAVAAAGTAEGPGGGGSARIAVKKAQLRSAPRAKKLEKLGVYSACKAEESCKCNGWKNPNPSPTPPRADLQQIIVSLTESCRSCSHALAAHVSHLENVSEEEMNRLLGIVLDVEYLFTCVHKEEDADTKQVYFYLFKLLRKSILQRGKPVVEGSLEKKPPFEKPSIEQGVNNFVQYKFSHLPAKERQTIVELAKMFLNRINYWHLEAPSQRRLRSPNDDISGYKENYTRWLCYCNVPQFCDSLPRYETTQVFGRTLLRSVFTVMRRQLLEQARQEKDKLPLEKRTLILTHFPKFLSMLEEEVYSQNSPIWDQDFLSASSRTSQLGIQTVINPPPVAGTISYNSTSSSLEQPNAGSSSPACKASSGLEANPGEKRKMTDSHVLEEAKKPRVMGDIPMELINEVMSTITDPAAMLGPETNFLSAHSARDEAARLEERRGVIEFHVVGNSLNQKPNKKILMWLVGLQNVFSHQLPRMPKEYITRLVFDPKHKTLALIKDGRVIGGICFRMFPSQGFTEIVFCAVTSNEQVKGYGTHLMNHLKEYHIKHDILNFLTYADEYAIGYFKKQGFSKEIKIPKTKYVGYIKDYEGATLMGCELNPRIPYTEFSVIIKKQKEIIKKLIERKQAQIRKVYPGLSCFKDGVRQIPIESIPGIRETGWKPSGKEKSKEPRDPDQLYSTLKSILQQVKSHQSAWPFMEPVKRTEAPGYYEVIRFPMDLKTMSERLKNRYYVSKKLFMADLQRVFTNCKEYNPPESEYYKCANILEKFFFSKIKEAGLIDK

[4] = biological target: T1, Histone acetyltransferase p300; assay: Inhibition of full length recombinant His6-tagged p300 (unknown origin) expressed in baculovirus expression system using histone substrate at 25 uM after 10 mins by liquid scintillation counting method in presence of [3H]acetyl-CoA relative to control
[5] = biological target: T2, Histone acetyltransferase KAT2B; assay: Inhibition of full length recombinant FLAG-tagged PCAF (unknown origin) expressed in baculovirus expression system using histone substrate after 10 mins by liquid scintillation counting method in presence of [3H]acetyl-CoA
Target sequence in this assay (Q92831 whole entry): as the sequence (Q92831 whole entry, looked up) above

[6] = biological target: T3, Histone acetyltransferase KAT5 (Homo sapiens, UniProt Q92993); assay: Inhibition of TIP60 (unknown origin) expressed in bacterial system using histone substrate at 25 uM after 10 mins by liquid scintillation counting method in presence of [3H]acetyl-CoA relative to control
Target sequence in this assay (Q92993 whole entry, looked up, the tested form may be a part): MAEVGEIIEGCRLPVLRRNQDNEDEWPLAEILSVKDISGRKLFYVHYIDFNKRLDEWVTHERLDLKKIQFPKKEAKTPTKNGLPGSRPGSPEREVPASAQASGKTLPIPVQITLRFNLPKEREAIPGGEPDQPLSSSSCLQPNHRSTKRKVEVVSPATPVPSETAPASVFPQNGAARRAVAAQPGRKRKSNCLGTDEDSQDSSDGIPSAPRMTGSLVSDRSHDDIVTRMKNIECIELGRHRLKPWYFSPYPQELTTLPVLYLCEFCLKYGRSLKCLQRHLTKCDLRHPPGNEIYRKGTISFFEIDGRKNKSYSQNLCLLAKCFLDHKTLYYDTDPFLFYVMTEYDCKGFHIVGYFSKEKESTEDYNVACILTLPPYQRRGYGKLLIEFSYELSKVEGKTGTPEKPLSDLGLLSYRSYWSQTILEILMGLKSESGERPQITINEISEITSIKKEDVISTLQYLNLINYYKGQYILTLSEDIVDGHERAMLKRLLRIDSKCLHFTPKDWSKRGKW

[7] = biological target: T1, Histone acetyltransferase p300; assay: Inhibition of recombinant human p300 catalytic domain (1284 to 1673 residues) using histone H3 peptide substrate at 100 uM after 1 hr by liquid scintillation counting method in presence of [3H]acetyl-CoA relative to control
[8] = biological target: T2, Histone acetyltransferase KAT2B; assay: Inhibition of recombinant human PCAF catalytic domain (492 to 658 residues) using histone H3 peptide substrate at 100 uM after 1 hr by liquid scintillation counting method in presence of [3H]acetyl-CoA relative to control
Target sequence in this assay (Q92831 whole entry, looked up): as the sequence (Q92831 whole entry, looked up) above

[9] = biological target: T2, Histone acetyltransferase KAT2B; assay: Inhibition of recombinant PCAF (unknown origin) expressed in baculovirus expression system using histone substrate after 10 mins by liquid scintillation counting method in presence of [3H]acetyl-CoA
Target sequence in this assay (Q92831 whole entry): as the sequence (Q92831 whole entry, looked up) above

[10] = biological target: T1, Histone acetyltransferase p300; assay: Inhibition of full length recombinant His6-tagged p300 (unknown origin) expressed in baculovirus expression system using histone substrate after 10 mins by liquid scintillation counting method in presence of [3H]acetyl-CoA
[11] = biological target: T3, Histone acetyltransferase KAT5; assay: Inhibition of full length TIP60 (unknown origin) expressed in Escherichia coli using N-terminal histone H4-20 peptide substrate incubated for 10 mins by liquid scintillation counting method in presence of [3H]acetyl-CoA
Target sequence in this assay (Q92993 whole entry, the tested form may be a part): as the sequence (Q92993 whole entry, looked up, the tested form may be a part) above

[12] = biological target: T1, Histone acetyltransferase p300; assay: Inhibition of p300 (unknown origin) using N-terminal histone H4-20 peptide substrate incubated for 10 mins by liquid scintillation counting method in presence of [14C]acetyl-CoA
[13] = biological target: T4, Histone acetyltransferase ESA1 (Saccharomyces cerevisiae (strain ATCC 204508 / S288c) (Baker's yeast), UniProt Q08649); assay: Inhibition of yeast ESA1 using N-terminal histone H3 substrate by radiometric filter binding based […] in presence of [3H]acetyl-CoA
T4 sequence (Q08649 whole entry): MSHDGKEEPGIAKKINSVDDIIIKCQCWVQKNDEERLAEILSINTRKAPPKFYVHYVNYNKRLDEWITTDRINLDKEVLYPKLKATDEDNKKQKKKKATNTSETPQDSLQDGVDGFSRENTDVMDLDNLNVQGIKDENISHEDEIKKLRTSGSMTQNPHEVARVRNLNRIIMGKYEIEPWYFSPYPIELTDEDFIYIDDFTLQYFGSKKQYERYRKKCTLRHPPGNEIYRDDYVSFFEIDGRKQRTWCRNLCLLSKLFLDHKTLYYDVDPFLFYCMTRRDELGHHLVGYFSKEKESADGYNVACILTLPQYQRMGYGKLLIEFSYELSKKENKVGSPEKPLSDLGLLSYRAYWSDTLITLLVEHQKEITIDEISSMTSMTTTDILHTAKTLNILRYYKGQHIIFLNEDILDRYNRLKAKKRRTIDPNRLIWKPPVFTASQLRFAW

[14] = biological target: T2, Histone acetyltransferase KAT2B; assay: Inhibition of PCAF (unknown origin) using N-terminal histone H3-20 peptide substrate incubated for 3.5 mins by liquid scintillation counting method in presence of [3H]acetyl-CoA
Target sequence in this assay (Q92831 whole entry): as the sequence (Q92831 whole entry, looked up) above

CREB-binding protein = CREB-binding protein (Homo sapiens, UniProt Q92793); assay: Inhibition of CBP (unknown origin) using N-terminal histone H3 substrate at 100 uM by radiometric filter binding based phenotypic screen in presence of [3H]acetyl-CoA relative to control
[15] = biological target: T1, Histone acetyltransferase p300; assay: Inhibition of recombinant p300 catalytic domain (unknown origin) using N-terminal histone H3 substrate by radiometric filter binding based phenotypic screen in presence of [3H]acetyl-CoA
[16] = biological target: T3, Histone acetyltransferase KAT5; assay: Inhibition of TIP60 (unknown origin) using N-terminal histone H3 substrate at 100 uM by […] in presence of [3H]acetyl-CoA relative to control
Target sequence in this assay (Q92993 whole entry, looked up, the tested form may be a part): as the sequence (Q92993 whole entry, looked up, the tested form may be a part) above

[17] = biological target: Histone acetyltransferase KAT7 (Homo sapiens) (UniProt O95251); assay: Inhibition of HBO1 (unknown origin) using N-terminal histone H3 substrate at 100 uM by […] in presence of [3H]acetyl-CoA relative to control
Histone acetyltransferase KAT7 (Homo sapiens), sequence (O95251 whole entry, the tested form may be a part): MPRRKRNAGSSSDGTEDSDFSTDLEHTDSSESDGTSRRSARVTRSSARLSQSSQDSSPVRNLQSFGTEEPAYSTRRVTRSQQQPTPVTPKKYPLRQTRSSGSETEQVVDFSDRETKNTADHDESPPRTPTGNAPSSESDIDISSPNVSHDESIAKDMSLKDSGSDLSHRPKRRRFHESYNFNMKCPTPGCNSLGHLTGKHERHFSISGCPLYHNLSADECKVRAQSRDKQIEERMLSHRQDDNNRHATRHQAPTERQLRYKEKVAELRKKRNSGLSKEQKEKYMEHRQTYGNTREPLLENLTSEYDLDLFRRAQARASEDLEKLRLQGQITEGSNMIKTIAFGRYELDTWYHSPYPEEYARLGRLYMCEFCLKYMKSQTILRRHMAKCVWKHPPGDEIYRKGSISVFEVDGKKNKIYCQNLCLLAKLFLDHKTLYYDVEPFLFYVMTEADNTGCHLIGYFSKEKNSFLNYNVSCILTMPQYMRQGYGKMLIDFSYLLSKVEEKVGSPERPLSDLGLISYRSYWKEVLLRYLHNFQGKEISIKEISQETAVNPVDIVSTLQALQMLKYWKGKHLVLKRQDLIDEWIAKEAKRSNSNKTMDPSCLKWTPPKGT

[18] = biological target: T1, Histone acetyltransferase p300; assay: Inhibition of recombinant p300 catalytic domain (unknown origin) using N-terminal histone H3 substrate by orthogonal fluorescence assay in presence of [3H]acetyl-CoA
[19] = biological target: T2, Histone acetyltransferase KAT2B; assay: Inhibition of PCAF (unknown origin) using N-terminal histone H3 substrate by radiometric filter binding based phenotypic screen in presence of [3H]acetyl-CoA
Target sequence in this assay (Q92831 whole entry): as the sequence (Q92831 whole entry, looked up) above

[20] = biological target: Histone acetyltransferase KAT2A (Homo sapiens, UniProt Q92830); assay: Inhibition of GCN5 (unknown origin) using N-terminal histone H3 substrate by radiometric filter binding based phenotypic screen in presence of [3H]acetyl-CoA
[21] = biological target: T1, Histone acetyltransferase p300; assay: Inhibition of recombinant p300 catalytic domain (unknown origin) using N-terminal histone H3 substrate at 52 uM by orthogonal fluorescence assay in presence of [3H]acetyl-CoA relative to control
[22] = biological target: T1, Histone acetyltransferase p300; assay: Inhibition of recombinant p300 catalytic domain (unknown origin) using N-terminal histone H3 substrate by radiometric filter binding assay in presence of [3H]acetyl-CoA
[23] = biological target: T1, Histone acetyltransferase p300; assay: Inhibition of human recombinant C-terminal GST-tagged p300 (1195 to 1673 residues) expressed in competent Escherichia coli DH5alpha cells using histone substrate after 30 mins by scintillation counting method in presence of [3H]acetyl-CoA
[24] = biological target: T3, Histone acetyltransferase KAT5; assay: Inhibition of recombinant human GFP-tagged TIP60 expressed in chicken embryo DT40 cells using histone substrate at 500 uM incubated for 1 hr followed by ionizing radiation treatment by immunosorbent gel assay relative to control; format: cell-based
Target sequence in this assay (Q92993 whole entry, looked up, the tested form may be a part): as the sequence (Q92993 whole entry, looked up, the tested form may be a part) above

IC50 [1]: 0.07 µM
Structure (SMILES): CC(C)(C)OC(=O)NCCCCCNC(=O)CSCCNC(=O)CCNC(=O)[C@H](O)C(C)(C)COP(=O)(O)OP(=O)(O)OC[C@H]1O[C@@H](n2cnc3c(N)ncnc32)[C@H](O)[C@@H]1OP(=O)(O)O

inhibition [2]: > 50%
inhibition [3]: > 50%
Structure (SMILES): COc1cc(/C=C/c2cc(/C=C/c3ccc(O)c(OC)c3)n(-c3ccc(C(=O)O)cc3)n2)ccc1O

inhibition [4]: 75%
IC50 [5]: 7.2 µM
inhibition [6]: 75%
Structure (SMILES): CCCCCCCCCCCC1=C(O)C(=O)C=C(O)C1=O [EMBELIN]

IC50 [11]: 149 µM
IC50 [12]: 150 µM
IC50 [13]: 190 µM
IC50 [14]: > 100 µM
Structure (SMILES): COc1ccc(C2CC(c3cccs3)=NN2c2nc(-c3ccc(N4C(=O)c5ccccc5C4=O)cc3)cs2)cc1OC (stereo not given)

inhibition (CREB-binding protein): 32%
IC50 [15]: 128 µM
inhibition [16]: 2%
inhibition [17]: 1%
IC50 [18]: 1.98 µM
IC50 [19]: 34.7 µM
IC50 [20]: 33.9 µM
Structure (SMILES): COc1ccc(S(=O)(=O)ON=C2C=C(C)C(=O)C(C)=C2)cc1

IC50 [23]: 0.011 µM
Structure (SMILES): N=C(N)NCCC[C@@H]1NC(=O)/C(=C/c2ccc(O)c(OCC[C@H](NC(=O)C[C@](O)(CC(=O)N[C@@H](CC(=O)O)C(=O)O)C(=O)O)C(=O)O)c2)NC1=O

Continued, compound first:

Structure (SMILES): CCCCCCCCCCCCCCC=C(C(=O)OCC)C(=O)OCC
inhibition [7]: 81.2%
inhibition [8]: 37.5%

Structure (SMILES): CC1=CC(=O)c2c(O)cccc2C1=O [PLUMBAGIN]
IC50 [9]: 50 µM
IC50 [10]: 20 µM

Structure (SMILES): CCCCCCCCCCCCCCCc1cccc(O)c1C(=O)O [ANACARDIC ACID]
%max [21]: 60%
IC50 [22]: 4.15 µM

Structure (SMILES): O=C(O)Cn1nnc(-c2ccc(CN(CCCCOc3ccc(CN4CCCC4)cc3)CCc3ccccc3)cc2)n1
inhibition [24]: 60%
